What was measured:
[1] = target: Phosphorylase b kinase gamma catalytic chain, liver/testis isoform (Homo sapiens) (UniProt P15735); test: Binding affinity to wild-type human partial length PHKG2 (M1 to W300 residues) expressed in bacterial expression system assessed as residual binding level at 10 uM by Kinomescan method relative to control
[2] = target: Tyrosine-protein kinase ABL2 (Homo sapiens) (UniProt P42684); test: Binding affinity to wild-type human ABL2 (A248 to G542 residues) expressed in bacterial expression system assessed as residual binding level at 10 uM by Kinomescan method relative to control
[3] = target: Phosphatidylinositol 5-phosphate 4-kinase type-2 gamma (Homo sapiens) (UniProt Q8TBX8); test: Binding affinity to wild-type human partial length PIP5K2C (M1 to A421 residues) expressed in mammalian expression system assessed as residual binding level at 10 uM by Kinomescan method relative to control
[4] = target: Wee1-like protein kinase 2 (Homo sapiens) (UniProt P0C1S8); test: Binding affinity to wild-type human partial length WEE2 (M204 to K492 residues) expressed in bacterial expression system assessed as residual binding level at 10 uM by Kinomescan method relative to control
[5] = target: High affinity nerve growth factor receptor (Homo sapiens) (UniProt P04629); test: Binding affinity to wild-type human partial length TRKA (G475 to G790 residues) expressed in mammalian expression system assessed as residual binding level at 10 uM by Kinomescan method relative to control
[6] = target: Serine/threonine-protein kinase MRCK alpha (Homo sapiens) (UniProt Q5VT25); test: Binding affinity to wild-type human partial length MRCKA (L57 to V418 residues) expressed in bacterial expression system assessed as residual binding level at 10 uM by Kinomescan method relative to control
[7] = target: Cyclin-dependent kinase-like 1 (Homo sapiens) (UniProt Q00532); test: Binding affinity to wild-type human full length CDKL1 (M1 to I358 residues) expressed in mammalian expression system assessed as residual binding level at 10 uM by Kinomescan method relative to control
[8] = target: Testis-specific serine/threonine-protein kinase 3 (Homo sapiens) (UniProt Q96PN8); test: Binding affinity to wild-type human full length TSSK3 (M1 to T268 residues) expressed in mammalian expression system assessed as residual binding level at 10 uM by Kinomescan method relative to control
[9] = target: Rho-associated protein kinase 1 (Homo sapiens) (UniProt Q13464); test: Binding affinity to wild-type human partial length ROCK1 (M1 to R415 residues) expressed in mammalian expression system assessed as residual binding level at 10 uM by Kinomescan method relative to control
[10] = target: Serine/threonine-protein kinase 10 (Homo sapiens) (UniProt O94804); test: Binding affinity to wild-type human partial length LOK (E16 to V314 residues) expressed in bacterial expression system assessed as residual binding level at 10 uM by Kinomescan method relative to control
Cholinesterase = Cholinesterase (Homo sapiens, UniProt P06276); test: Inhibition of human serum BChE using BTCh as substrate preincubated for 20 mins followed by substrate addition and measured for 3 mins by Ellman's method
[11] = target: MAP/microtubule affinity-regulating kinase 3 (Homo sapiens) (UniProt P27448); test: Binding affinity to wild-type human full length MARK3 (M1 to L729 residues) expressed in bacterial expression system assessed as residual binding level at 10 uM by Kinomescan method relative to control
[12] = target: Phosphatidylinositol 4-phosphate 5-kinase type-1 alpha (Homo sapiens) (UniProt Q99755); test: Binding affinity to wild-type human full length PIP5K1A (M1 to H562 residues) expressed in bacterial expression system assessed as residual binding level at 10 uM by Kinomescan method relative to control
[13] = target: Peripheral plasma membrane protein CASK (Homo sapiens) (UniProt O14936); test: Binding affinity to wild-type human partial length CASK (M1 to H315 residues) expressed in mammalian expression system assessed as residual binding level at 10 uM by Kinomescan method relative to control
[14] = system: Receptor-type tyrosine-protein kinase FLT3 (Homo sapiens), P36888 [UNDEFINED MUTATION]; test: Binding affinity to human partial length FLT3 ITD mutant expressed in bacterial expression system assessed as residual binding level at 10 uM by Kinomescan method relative to control
[15] = target: Cyclin-dependent kinase 18 (Homo sapiens) (UniProt Q07002); test: Binding affinity to wild-type human full length PCTK3 (M3 to F474 residues) expressed in bacterial expression system assessed as residual binding level at 10 uM by Kinomescan method relative to control
[16] = target: Serine/threonine-protein kinase PAK 2 (Homo sapiens) (UniProt Q13177); test: Binding affinity to wild-type human partial length PAK2 (P151 to R525 residues) expressed in bacterial expression system assessed as residual binding level at 10 uM by Kinomescan method relative to control
[17] = target: Serine/threonine-protein kinase haspin (Homo sapiens) (UniProt Q8TF76); test: Binding affinity to wild-type human partial length HASPIN (I452 to K798 residues) expressed in mammalian expression system assessed as residual binding level at 10 uM by Kinomescan method relative to control
[18] = target: Misshapen-like kinase 1 (Homo sapiens) (UniProt Q8N4C8); test: Binding affinity to wild-type human partial length MINK (M1 to K312 residues) expressed in mammalian expression system assessed as residual binding level at 10 uM by Kinomescan method relative to control
[19] = system: Mast/stem cell growth factor receptor Kit (Homo sapiens), P10721 [A829P]; test: Binding affinity to human partial length KIT A829P mutant (I571 to D952 residues) expressed in mammalian expression system assessed as residual binding level at 10 uM by Kinomescan method relative to control
MDA-MB-231 = test: Cytotoxicity against human MDA-MB-231 cells assessed as growth inhibition incubated for 48 hrs by Hoechst 33342 staining based assay; assay type: cell-based; conditions: MDA-MB-231, 48 h
[20] = target: Tyrosine-protein kinase Lyn (Homo sapiens) (UniProt P07948); test: Binding affinity to wild-type human partial length LYN (C219 to Q511 residues) expressed in bacterial expression system assessed as residual binding level at 10 uM by Kinomescan method relative to control
[21] = target: Ribosomal protein S6 kinase alpha-3 (Homo sapiens) (UniProt P51812); test: Binding affinity to wild-type human partial length C-terminal RSK2 kinase domain 2 (V402 to S715 residues) expressed in mammalian expression system assessed as residual binding level at 10 uM by Kinomescan method relative to control
[22] = target: Tyrosine-protein kinase SYK (Homo sapiens) (UniProt P43405); test: Binding affinity to wild-type human partial length SYK (D354 to N635 residues) expressed in bacterial expression system assessed as residual binding level at 10 uM by Kinomescan method relative to control
HaCaT = test: Cytotoxicity against human HaCaT cells assessed as growth inhibition incubated for 48 hrs by Hoechst 33342 staining based assay; assay type: cell-based

Misshapen-like kinase 1 (Homo sapiens), sequence (Q8N4C8 whole entry, looked up, the tested form may be a part): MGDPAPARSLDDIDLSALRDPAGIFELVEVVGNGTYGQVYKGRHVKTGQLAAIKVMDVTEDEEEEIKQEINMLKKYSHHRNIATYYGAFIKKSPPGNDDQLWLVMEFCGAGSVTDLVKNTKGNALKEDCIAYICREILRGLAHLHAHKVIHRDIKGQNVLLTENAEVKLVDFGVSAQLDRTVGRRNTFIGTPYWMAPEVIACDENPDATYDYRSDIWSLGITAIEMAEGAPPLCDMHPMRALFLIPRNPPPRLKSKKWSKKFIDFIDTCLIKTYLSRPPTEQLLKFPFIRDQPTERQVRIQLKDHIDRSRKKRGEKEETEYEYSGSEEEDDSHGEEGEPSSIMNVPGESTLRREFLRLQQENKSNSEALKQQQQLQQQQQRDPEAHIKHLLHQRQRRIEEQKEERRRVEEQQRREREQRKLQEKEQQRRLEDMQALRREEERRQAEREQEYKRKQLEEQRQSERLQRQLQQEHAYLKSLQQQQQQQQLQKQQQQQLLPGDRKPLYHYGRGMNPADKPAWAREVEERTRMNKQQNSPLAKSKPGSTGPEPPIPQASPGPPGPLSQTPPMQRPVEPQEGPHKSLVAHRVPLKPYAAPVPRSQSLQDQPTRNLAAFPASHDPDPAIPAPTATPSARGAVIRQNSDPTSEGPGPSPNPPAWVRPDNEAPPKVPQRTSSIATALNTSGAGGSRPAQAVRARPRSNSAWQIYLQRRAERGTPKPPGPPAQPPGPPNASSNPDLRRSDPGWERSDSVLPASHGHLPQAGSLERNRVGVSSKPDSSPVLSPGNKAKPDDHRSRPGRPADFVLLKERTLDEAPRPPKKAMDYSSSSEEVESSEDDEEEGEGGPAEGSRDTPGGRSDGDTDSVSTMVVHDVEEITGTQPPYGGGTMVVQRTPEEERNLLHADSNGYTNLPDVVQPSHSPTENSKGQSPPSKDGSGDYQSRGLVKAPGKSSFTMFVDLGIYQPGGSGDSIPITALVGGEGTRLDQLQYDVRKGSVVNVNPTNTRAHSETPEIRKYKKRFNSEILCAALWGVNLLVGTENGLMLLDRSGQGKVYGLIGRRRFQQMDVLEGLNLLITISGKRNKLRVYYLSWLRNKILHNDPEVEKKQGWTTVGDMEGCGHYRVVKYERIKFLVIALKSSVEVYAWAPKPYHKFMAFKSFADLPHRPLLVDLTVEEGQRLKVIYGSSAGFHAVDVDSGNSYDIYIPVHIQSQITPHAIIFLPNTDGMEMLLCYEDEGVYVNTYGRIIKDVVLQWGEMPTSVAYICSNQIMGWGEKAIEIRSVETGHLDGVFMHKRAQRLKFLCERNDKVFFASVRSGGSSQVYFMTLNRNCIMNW
Cyclin-dependent kinase 18 (Homo sapiens), sequence (Q07002 whole entry, the tested form may be a part): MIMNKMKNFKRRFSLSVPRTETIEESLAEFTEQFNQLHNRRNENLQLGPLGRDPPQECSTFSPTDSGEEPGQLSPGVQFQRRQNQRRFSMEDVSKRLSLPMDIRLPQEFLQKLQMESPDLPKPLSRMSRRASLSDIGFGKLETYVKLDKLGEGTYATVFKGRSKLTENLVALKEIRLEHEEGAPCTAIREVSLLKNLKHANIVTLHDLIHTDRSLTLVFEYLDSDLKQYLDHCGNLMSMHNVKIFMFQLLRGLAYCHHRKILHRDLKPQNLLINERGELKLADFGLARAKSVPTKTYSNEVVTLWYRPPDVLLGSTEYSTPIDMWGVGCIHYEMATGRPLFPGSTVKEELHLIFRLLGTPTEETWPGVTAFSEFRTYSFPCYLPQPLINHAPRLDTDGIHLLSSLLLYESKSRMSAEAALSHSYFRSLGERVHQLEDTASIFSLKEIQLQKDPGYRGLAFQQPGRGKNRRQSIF
Serine/threonine-protein kinase haspin (Homo sapiens), sequence (Q8TF76 whole entry, the tested form may be a part): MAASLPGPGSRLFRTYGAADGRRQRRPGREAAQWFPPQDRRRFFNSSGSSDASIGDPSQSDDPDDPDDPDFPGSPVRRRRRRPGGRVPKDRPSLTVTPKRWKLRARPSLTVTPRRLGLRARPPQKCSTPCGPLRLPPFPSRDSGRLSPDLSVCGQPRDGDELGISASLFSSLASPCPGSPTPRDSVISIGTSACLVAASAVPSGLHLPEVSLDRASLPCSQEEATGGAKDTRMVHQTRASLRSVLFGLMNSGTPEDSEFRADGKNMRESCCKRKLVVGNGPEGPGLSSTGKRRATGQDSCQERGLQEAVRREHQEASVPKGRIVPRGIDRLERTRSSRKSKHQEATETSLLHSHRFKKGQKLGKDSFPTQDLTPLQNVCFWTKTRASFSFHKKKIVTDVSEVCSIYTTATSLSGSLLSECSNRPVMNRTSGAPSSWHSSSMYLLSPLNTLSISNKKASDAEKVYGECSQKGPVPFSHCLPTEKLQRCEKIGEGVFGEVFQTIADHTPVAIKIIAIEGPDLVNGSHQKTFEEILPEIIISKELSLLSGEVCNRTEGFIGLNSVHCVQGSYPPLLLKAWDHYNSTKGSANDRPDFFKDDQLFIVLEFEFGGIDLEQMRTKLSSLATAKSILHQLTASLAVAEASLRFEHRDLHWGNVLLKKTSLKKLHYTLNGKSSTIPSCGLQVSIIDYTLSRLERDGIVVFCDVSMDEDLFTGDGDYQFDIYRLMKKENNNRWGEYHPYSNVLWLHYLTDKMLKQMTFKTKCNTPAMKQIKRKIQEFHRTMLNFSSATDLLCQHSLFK
High affinity nerve growth factor receptor (Homo sapiens), sequence (P04629 33-796 limits assumed): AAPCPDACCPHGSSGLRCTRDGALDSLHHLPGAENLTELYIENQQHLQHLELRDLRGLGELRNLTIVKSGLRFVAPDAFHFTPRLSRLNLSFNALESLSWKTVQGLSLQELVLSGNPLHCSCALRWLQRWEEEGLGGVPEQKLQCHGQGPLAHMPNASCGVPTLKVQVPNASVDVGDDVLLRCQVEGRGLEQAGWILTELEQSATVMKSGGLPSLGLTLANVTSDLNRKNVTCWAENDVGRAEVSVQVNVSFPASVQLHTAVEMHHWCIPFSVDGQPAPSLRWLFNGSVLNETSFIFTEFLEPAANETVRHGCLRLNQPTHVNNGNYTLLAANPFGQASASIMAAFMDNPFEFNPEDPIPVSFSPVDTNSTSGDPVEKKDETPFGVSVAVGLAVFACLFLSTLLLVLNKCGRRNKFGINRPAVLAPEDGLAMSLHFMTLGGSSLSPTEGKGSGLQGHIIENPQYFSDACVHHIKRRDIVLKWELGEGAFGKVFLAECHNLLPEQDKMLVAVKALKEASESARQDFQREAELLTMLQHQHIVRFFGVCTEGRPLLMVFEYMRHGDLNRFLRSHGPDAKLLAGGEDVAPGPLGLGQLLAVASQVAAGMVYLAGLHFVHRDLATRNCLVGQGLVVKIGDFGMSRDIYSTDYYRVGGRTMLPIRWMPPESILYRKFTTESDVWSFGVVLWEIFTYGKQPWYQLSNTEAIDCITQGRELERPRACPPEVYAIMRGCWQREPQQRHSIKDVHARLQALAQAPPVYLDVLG
Phosphatidylinositol 4-phosphate 5-kinase type-1 alpha (Homo sapiens), sequence (Q99755 whole entry, the tested form may be a part): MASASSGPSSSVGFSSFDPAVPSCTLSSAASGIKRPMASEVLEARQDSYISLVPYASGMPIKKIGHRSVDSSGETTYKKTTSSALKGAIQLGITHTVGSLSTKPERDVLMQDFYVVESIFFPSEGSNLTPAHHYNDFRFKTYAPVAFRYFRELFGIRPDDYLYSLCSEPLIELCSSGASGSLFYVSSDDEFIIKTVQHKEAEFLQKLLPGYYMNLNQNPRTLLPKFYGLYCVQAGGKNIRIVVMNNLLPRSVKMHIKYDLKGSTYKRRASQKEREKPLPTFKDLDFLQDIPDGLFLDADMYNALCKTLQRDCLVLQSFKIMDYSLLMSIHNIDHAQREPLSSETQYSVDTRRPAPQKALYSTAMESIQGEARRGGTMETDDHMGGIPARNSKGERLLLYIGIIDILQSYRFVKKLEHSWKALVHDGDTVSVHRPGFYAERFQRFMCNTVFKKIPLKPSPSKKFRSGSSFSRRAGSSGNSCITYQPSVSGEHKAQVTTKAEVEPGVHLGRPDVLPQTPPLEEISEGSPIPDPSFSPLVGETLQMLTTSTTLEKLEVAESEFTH
Receptor-type tyrosine-protein kinase FLT3 (Homo sapiens), P36888 [UNDEFINED MUTATION], sequence (P36888 whole entry, looked up, change not shown, the tested form may be a part): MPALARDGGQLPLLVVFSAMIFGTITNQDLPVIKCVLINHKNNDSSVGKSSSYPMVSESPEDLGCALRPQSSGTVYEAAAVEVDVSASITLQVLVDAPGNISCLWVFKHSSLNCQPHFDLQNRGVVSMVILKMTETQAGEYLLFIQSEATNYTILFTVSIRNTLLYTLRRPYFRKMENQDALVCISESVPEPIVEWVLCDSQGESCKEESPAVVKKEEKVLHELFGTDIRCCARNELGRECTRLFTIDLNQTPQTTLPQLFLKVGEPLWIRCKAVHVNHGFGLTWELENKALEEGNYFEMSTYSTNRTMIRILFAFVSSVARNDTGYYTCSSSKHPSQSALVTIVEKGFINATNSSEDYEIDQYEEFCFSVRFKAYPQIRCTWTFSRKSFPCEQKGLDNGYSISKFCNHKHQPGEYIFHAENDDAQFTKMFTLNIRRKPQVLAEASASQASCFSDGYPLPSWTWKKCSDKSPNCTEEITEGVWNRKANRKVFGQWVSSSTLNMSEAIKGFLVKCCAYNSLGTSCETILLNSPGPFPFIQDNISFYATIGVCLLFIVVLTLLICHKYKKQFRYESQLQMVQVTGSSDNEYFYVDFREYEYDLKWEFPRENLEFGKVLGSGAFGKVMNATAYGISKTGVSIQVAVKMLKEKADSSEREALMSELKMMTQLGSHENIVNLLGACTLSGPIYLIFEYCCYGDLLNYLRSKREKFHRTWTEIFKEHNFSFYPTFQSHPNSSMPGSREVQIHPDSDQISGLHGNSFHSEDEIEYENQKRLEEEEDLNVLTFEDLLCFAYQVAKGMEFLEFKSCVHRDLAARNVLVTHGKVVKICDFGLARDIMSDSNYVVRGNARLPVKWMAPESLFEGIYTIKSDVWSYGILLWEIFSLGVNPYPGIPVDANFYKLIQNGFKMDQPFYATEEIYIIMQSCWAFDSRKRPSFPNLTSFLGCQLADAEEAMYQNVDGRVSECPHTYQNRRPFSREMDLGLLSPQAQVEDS

`O=C(Nc1cc(-c2cn(CCNc3c4c(nc5ccccc35)CCCC4)nn2)ccn1)Nc1cccc2c1C1CCCCN1C2=O` (racemic) showed an Activity [1] of 50%, an Activity [2] of 22% and an Activity [3] of 3.4%. It also gave an Activity [4] of 100%, an Activity [5] of 8.6% and an Activity [6] of 97%. It also gave an Activity [7] of 3%, an Activity [8] of 100% and an Activity [9] of 36%. The Activity [10] was 99%, the IC50 (Cholinesterase) was 0.301 µM and the Activity [11] was 91%. For the same molecule, the Activity [12] was 22%, the Activity [13] was 65% and the Activity [14] was 1%. The Activity [15] was 6.2%, the Activity [16] was 34% and the Activity [17] was 3.9%. For the same molecule, the Activity [18] was 28%, the Activity [19] was 3.9% and the IC50 (MDA-MB-231) was 2 µM. For the same molecule, the Activity [20] was 83%, the Activity [21] was 100% and the Activity [22] was 91%. It also gave an IC50 (HaCaT) of 5 µM.

Reference: ChEMBL document CHEMBL4390652, “Design, biological evaluation and X-ray crystallography of nanomolar multifunctional ligands targeting simultaneously acetylcholinesterase and glycogen synthase kinase-3” (Eur J Med Chem, 2019)
